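Following 48 hours of exposure in 96-well plates, responses at five concentrations were used to interpolate endpoints linearly. TGI: concentration producing complete growth inhibition.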
What was measured:
Experiment in all cases: inhibition of tumour cell growth, NCI panel, 48 h
[1] = test system: MALME-3M melanoma
[2] = test system: RXF 393 renal
[3] = test system: SF-295 CNS
[4] = test system: NCI-H460 lung
[5] = test system: KM12 colon
[6] = test system: OVCAR-3 ovarian
[7] = test system: TK-10 renal
[8] = test system: SNB-19 CNS
[9] = test system: U251 CNS
[10] = test system: MDA-N
[11] = test system: SF-539 CNS
[12] = test system: T-47D breast
[13] = test system: SNB-75 CNS
[14] = test system: OVCAR-8 ovarian
[15] = test system: NCI-H522 lung
[16] = test system: SK-OV-3 ovarian
[17] = test system: UACC-62 melanoma
[18] = test system: COLO 205 colon
[19] = test system: M14 melanoma

SMILES | TGI [1] | TGI [2] | TGI [3] | TGI [4] | TGI [5] | TGI [6] | TGI [7] | TGI [8] | TGI [9] | TGI [10] | TGI [11] | TGI [12] | TGI [13] | TGI [14] | TGI [15] | TGI [16] | TGI [17] | TGI [18] | TGI [19]
OC(CC(O)(C(F)(F)F)C(F)(F)F)C(O)c1ccco1 (centres undefined) | > 10 µM | > 10 µM | > 10 µM | > 10 µM | > 10 µM | > 10 µM | > 10 µM | > 10 µM | > 10 µM | > 10 µM | > 10 µM | > 10 µM | > 10 µM | > 10 µM | > 10 µM | > 10 µM | > 10 µM | > 10 µM | > 10 µM
CCOC(=O)c1cc(Br)c(-c2onc(C)c2Br)n1C | > 100 µM | 28.6 µM | 76.2 µM | > 100 µM | 69.5 µM | > 100 µM | > 100 µM | > 100 µM | > 100 µM | > 100 µM | > 100 µM | 57.7 µM | 53 µM | > 100 µM | 72.7 µM | 59.8 µM | > 100 µM | 85.7 µM | > 100 µM
COc1cccc(C2c3cc4c(cc3OC(N3CCCCC3)C2C)OCO4)c1OC (centres undefined) | 39.4 µM | 28.2 µM | 22.5 µM | 27.9 µM | 23.8 µM | 20.7 µM | 84.1 µM | > 100 µM | 51.5 µM | 47 µM | 33.9 µM | 54.2 µM | 66.7 µM | > 100 µM | 29 µM | > 100 µM | 33.6 µM | 29 µM | 47.1 µM
COc1ccc(C(SCC(N)C(=O)O)(c2ccc(OC)cc2)c2ccc(OC)cc2)cc1 (centres undefined) | 16 µM | 15.6 µM | 17.8 µM | 17.3 µM | 16.2 µM | 17.1 µM | 25.6 µM | 22.6 µM | 29.8 µM | 12.7 µM | 17.6 µM | 21.4 µM | 19.4 µM | 18 µM | 39.8 µM | 72.3 µM | 15.7 µM | 17 µM | 15.1 µM
O=C1C[C@H](CCC(=O)OCc2ccccc2)NC(=O)C[C@H](CCC(=O)OCc2ccccc2)NC(=O)C[C@H](CCC(=O)OCc2ccccc2)N1 | > 100 µM | 8.23 µM | 42.8 µM | > 100 µM | > 100 µM | > 100 µM | 25.4 µM | > 100 µM | > 100 µM | > 100 µM | 40.4 µM | > 100 µM | 6.73 µM | > 100 µM | > 100 µM | 29 µM | > 100 µM | > 100 µM | > 100 µM
CCO/C=C(\C(=O)OC)S(=O)(=O)c1ccc(C)cc1 | > 100 µM | > 100 µM | > 100 µM | > 100 µM | > 100 µM | > 100 µM | > 100 µM | > 100 µM | > 100 µM | > 100 µM | > 100 µM | > 100 µM | > 100 µM | > 100 µM | > 100 µM | > 100 µM | > 100 µM | > 100 µM | > 100 µM
NC(CC(=O)O)(Cc1ccccc1)C(=O)O (centres undefined) | > 100 µM | > 100 µM | > 100 µM | > 100 µM | > 100 µM | > 100 µM | > 100 µM | > 100 µM | > 100 µM | > 100 µM | > 100 µM | > 100 µM | > 100 µM | > 100 µM | > 100 µM | > 100 µM | > 100 µM | > 100 µM | > 100 µM
CCN(CC)CCCNc1ncc(C)c2c1c1ccc3c(O)cccc3c1n2C | 34.7 µM | 9.41 µM | 4.76 µM |  | 3.15 µM | 18.2 µM | 22.9 µM | 3.17 µM | 2.6 µM | 3.01 µM | 14.9 µM | 49.3 µM | 6.74 µM | 3.5 µM | 2.29 µM | 16.6 µM | 49.2 µM | 17.5 µM | 9.07 µM
CN1CCc2cc(N)cc3c2C1Cc1ccc2c(c1-3)OCO2 (centres undefined) | 58.6 µM | > 88.2 µM | > 100 µM | > 77.8 µM | > 100 µM | > 76.5 µM | > 88.8 µM | > 100 µM | > 100 µM | > 100 µM | > 95 µM | > 100 µM | > 91.5 µM | > 100 µM | 53.1 µM | > 100 µM | 70.5 µM | > 86.9 µM | > 100 µM
CC1C(O)Oc2cc3c(cc2C1c1ccccc1O)OCO3 (centres undefined) | 83.8 µM | 48.4 µM | 65.5 µM | 64.1 µM | > 100 µM | 99 µM | 89.6 µM | > 100 µM | > 100 µM | > 100 µM | 79.2 µM | > 100 µM | 87.4 µM | > 100 µM | 42.9 µM | > 100 µM | > 100 µM | 31 µM | > 100 µM
O=C(Nc1ccc(Cl)cc1)NS(=O)(=O)c1c(-c2ccccc2)oc2ccccc2c1=O | > 100 µM | > 100 µM | > 100 µM | > 100 µM | > 100 µM |  | 86.9 µM | > 100 µM | > 100 µM | > 100 µM | > 100 µM | > 100 µM | > 100 µM | > 100 µM | 31.2 µM | > 100 µM | 13.6 µM | > 100 µM | 
O=C(/C=C/c1ccc2c(c1)OCO2)CC(=O)/C=C/c1ccc2c(c1)OCO2 | > 100 µM | > 100 µM | > 100 µM | > 100 µM | 10.8 µM | > 100 µM | > 100 µM | > 100 µM | > 100 µM | > 100 µM | > 100 µM | > 100 µM | > 100 µM |  | > 100 µM | > 100 µM | > 100 µM | > 100 µM | > 100 µM

— PubChem BioAssay (NCI)
